Columns and labels:
[1] = biological target: Sodium channel alpha subunits; brain (Types I, II, III) (Homo sapiens, UniProt P35498+Q99250+Q9NY46); assay: Antagonism of batrachotoxin-mediated sodium ion uptake into cultured neuroblastoma cells; type: functional
[2] = biological target: Sodium channel alpha subunits; brain (Types I, II, III) (Rattus norvegicus, UniProt P04775+P04774+P08104); assay: Inhibition of [3H]batrachotoxin binding to rat brain neuronal membranes; type: cell membranes, Membrane

| SMILES | IC50 [1] [µM] | IC50 [2] [µM] |
| --- | --- | --- |
| COC[C@H](CCOC(=O)c1ccccc1)C[C@@H](O)[C@@]12CCCC3C[C@@](OC)(CCC31C)O2 | 5 | 10 |
| CC12CC[C@]3(OCc4cccc(Br)c4)CC1CCC[C@@]2(CO)O3 | 80 | 10 |
| CO[C@]12CCC3(C)C(CCC[C@@]3([C@H](O)CCCN(C)C)O1)C2 | 200 | 130 |
| CO[C@]12CCC3(C)C(CCC[C@@]3([C@H](O)C[C@@H](CCOC(=O)c3ccccc3)CN(C)C)O1)C2 | 0.5 | 3.6 |
| CN(C)CCC[C@@H](O)[C@@]12CCCC3C[C@@](OCc4ccccc4)(CCC31C)O2 | 4 | 4.5 |
| CO[C@]12CCC3(C)C(CCC[C@@]3(CO)O1)C2 | 1000 | 2000 |
| CCCCNc1ccc(C(=O)OCCN(C)C)cc1 [TETRACAINE] | – | 6 |
| COc1ccc(C(=O)O[C@H]2CC[C@@]3(C)[C@@H]4CC[C@H]5[C@]6(O)C[C@H](O)[C@@]7(O)[C@@H](CN8C[C@@H](C)CC[C@H]8[C@@]7(C)O)[C@]6(O)C[C@@]53O[C@]24O)cc1OC [VERATRIDINE] | – | 22 |

Reference: ChEMBL document CHEMBL1130561, “Batrachotoxin binding site antagonists” (Bioorg Med Chem Lett, 1997)
